Results as given in patent publication US10696675B2, “Imidazopyridopyrimidine derivative compound and use thereof” (HANMI PHARMACEUTICAL CO., LTD., priority 2016, dated 2020).

How the values were obtained:
FGFR4 = FGFR4 (Homo sapiens, UniProt P22455); test: Activity inhibition for FGFR4 kinase (Z′-LYTE biochemical assay, Invitrogen SelectScreen); conditions: ATP concentration based on Km
Method: (§1) For the synthesized compounds, inhibitory activity for FGFR1, 2, 3, 4 kinase was measured. Activity measurement was carried out by requesting to SelectScreen® Biochemical Kinase Profiling Service of Invitrogen. A Z′-LYTE® biochemical assay method was used, and the ATP concentration was set based on the Km value.

HUH7 cells = test: Proliferation inhibitory effect for HUH7 cells (SRB assay); assay type: cell-based; conditions: Homo sapiens, Huh-7, 72 hours, GI50, read-out: IC50 HUH7 Cell Line
Method: Test Example 2: Measuring Inhibitory Effect of FGFR Inhibitor Using Cell Line
The test was carried out for identifying a proliferation inhibitory effect of the compound of the present invention for HUH7 cells. HUH7 cell lines were counted and 5.0×10^3 cells were inoculated per well in a 96 well plate. After the innoculation, the cells were cultured for 24 hours in a 37 □ and 5% carbon dioxide (CO2) incubator. On the next day, the synthesized compounds were each diluted and prepared. The diluted compounds were introduced to the cell lines inoculated the previous day by concentrations, and reacted for 72 hours in a 37 □ and 5% carbon dioxide (CO2) incubator. However, to a positive control to which the compound was not added, 0.1% dimethyl sulfoxide (DMSO) diluted with a medium was introduced. To a negative control plate, a trichloroacetic acid (TCA) solution was introduced, and fixed at 4 □. After reacting for 72 hours, the medium including the compound was removed, a TCA solution was added thereto, and the cells were fixed for 30 minutes to 60 minutes at 4 □. The TCA solution was discarded, the plate was washed off with distilled water and then dried in the air. A 0.4% sulforhodamin B (SRB) solution was added to the plate and dyed for 10 minutes at room temperature. The plate was washed off with tap water including a 1% acetic acid solution, and then dried in the air. A 10 mM Trizma base solution was added to dissolve the solid SRB. Using a microplate reader, optical density (O.D. value) was measured at 540 nm. A GI50 value of each of the compounds was calculated using GraphPad Prism V6.0 Software.

FGFR1 = FGFR1 (Homo sapiens, UniProt P11362); test: Activity inhibition for FGFR1 kinase (Z′-LYTE biochemical assay, Invitrogen SelectScreen); conditions: ATP concentration based on Km
Sequence of FGFR1 (P11362 22-822): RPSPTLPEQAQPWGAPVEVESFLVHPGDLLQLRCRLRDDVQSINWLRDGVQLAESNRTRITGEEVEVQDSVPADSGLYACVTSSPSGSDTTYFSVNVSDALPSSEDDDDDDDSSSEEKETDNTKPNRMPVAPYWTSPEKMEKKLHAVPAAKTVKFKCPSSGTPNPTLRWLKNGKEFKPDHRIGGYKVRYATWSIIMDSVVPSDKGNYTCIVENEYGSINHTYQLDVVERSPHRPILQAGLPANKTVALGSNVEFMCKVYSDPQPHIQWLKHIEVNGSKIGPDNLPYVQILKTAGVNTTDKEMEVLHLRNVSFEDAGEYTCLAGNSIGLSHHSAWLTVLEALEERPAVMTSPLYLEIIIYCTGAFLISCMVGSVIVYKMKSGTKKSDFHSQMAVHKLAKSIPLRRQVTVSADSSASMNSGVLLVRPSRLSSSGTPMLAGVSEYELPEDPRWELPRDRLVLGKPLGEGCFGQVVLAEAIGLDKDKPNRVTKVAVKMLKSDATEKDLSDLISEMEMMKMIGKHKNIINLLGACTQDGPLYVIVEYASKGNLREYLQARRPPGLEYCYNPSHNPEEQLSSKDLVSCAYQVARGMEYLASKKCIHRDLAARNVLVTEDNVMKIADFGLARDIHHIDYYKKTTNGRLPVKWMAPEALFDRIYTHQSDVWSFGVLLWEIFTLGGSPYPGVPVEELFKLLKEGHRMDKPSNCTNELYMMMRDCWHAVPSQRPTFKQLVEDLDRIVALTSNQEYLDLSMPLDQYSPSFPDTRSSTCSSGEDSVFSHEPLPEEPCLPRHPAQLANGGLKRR
Method: as §1

Sequence of FGFR4 (P22455 22-802): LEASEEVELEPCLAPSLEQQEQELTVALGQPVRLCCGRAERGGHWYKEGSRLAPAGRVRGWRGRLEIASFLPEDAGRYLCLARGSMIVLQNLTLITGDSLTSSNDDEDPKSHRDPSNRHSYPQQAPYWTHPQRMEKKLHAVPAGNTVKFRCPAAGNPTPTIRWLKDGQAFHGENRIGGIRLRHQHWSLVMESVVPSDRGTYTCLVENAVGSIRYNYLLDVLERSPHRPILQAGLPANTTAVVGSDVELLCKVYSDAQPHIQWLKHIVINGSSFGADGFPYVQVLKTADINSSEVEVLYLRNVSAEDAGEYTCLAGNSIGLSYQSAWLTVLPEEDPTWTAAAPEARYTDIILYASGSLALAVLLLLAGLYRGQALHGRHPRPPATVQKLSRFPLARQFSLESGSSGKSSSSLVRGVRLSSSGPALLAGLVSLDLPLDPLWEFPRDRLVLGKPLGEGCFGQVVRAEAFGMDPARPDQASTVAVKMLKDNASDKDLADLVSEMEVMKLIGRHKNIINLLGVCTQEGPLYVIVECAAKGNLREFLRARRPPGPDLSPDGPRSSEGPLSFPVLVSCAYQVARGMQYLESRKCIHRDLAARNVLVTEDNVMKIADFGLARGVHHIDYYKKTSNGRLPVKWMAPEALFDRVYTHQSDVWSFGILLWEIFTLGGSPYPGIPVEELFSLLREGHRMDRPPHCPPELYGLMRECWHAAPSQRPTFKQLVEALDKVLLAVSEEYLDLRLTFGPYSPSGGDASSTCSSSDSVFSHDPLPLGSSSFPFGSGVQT

SMILES	IC50 (FGFR4) [nM]	IC50 (HUH7 cells) [nM]	IC50 (FGFR1) [nM]
C=CC(=O)Nc1cc(N2CCN(CC)CC2)ccc1Nc1ncc2cc(-c3c(Cl)c(OC)cc(OC)c3Cl)c3nccn3c2n1 [compound 31]	< 50	< 50	–
C=CC(=O)Nc1cc(N2CCN(CC)CC2)ccc1Nc1cc2c(cn1)cc(-c1c(Cl)c(OC)cc(OC)c1Cl)c1nccn12 [compound 85]	< 50	< 50	< 50
C=CC(=O)Nc1cc(N2CCOCC2)cc(C)c1Nc1ncc2cc(-c3c(Cl)c(OC)cc(OC)c3Cl)c3nccn3c2n1 [compound 63]	< 50	50 to 500	50 to 500
C=CC(=O)Nc1cc(N2CC(OC)C2)ccc1Nc1ncc2cc(-c3c(Cl)c(OC)cc(OC)c3Cl)c3nccn3c2n1 [compound 37]	< 50	< 50	< 50
C=CC(=O)Nc1cc(S(C)(=O)=O)ccc1Nc1ncc2cc(-c3c(Cl)c(OC)cc(OC)c3Cl)c3nccn3c2n1 [compound 18]	< 50	50 to 500	< 50
C=CC(=O)Nc1cc(OC2CCCC2)ccc1Nc1ncc2cc(-c3c(Cl)c(OC)cc(OC)c3Cl)c3nccn3c2n1 [compound 54]	50 to 500	50 to 500	> 500
C=CC(=O)Nc1cc(N2CCNCC2)ccc1Nc1ncc2cc(-c3c(Cl)c(OC)cc(OC)c3Cl)c3nccn3c2n1 [compound 39]	< 50	< 50	< 50
C=CC(=O)Nc1cc(N2CCN(C)CC2)ccc1Nc1ncc2cc(-c3c(Cl)c(OC)cc(OC)c3Cl)c3nccn3c2n1 [compound 52]	< 50	< 50	< 50
C=CC(=O)Nc1cc(N2CCS(=O)(=O)CC2)ccc1Nc1ncc2cc(-c3c(Cl)c(OC)cc(OC)c3Cl)c3nccn3c2n1 [compound 36]	< 50	< 50	< 50
C=CC(=O)Nc1cc(N(C)CCOC)ccc1Nc1ncc2cc(-c3c(Cl)c(OC)cc(OC)c3Cl)c3nccn3c2n1 [compound 25]	< 50	< 50	< 50
C=CC(=O)Nc1cc(C)cc(C)c1Nc1ncc2cc(-c3c(Cl)c(OC)cc(OC)c3Cl)c3nccn3c2n1 [compound 58]	50 to 500	50 to 500	> 500
C=CC(=O)Nc1cc(N2CC[C@H](N(C)C)C2)ccc1Nc1ncc2cc(-c3c(Cl)c(OC)cc(OC)c3Cl)c3nccn3c2n1 [compound 48]	< 50	< 50	< 50
C=CC(=O)Nc1cc(N2CCN(S(C)(=O)=O)CC2)ccc1Nc1ncc2cc(-c3c(Cl)c(OC)cc(OC)c3Cl)c3nccn3c2n1 [compound 35]	< 50	< 50	< 50
C=CC(=O)Nc1cccc(OC)c1Nc1ncc2cc(-c3c(Cl)c(OC)cc(OC)c3Cl)c3nccn3c2n1 [compound 11]	< 50	50 to 500	50 to 500
C=CC(=O)Nc1cc(O[C@@H]2CCOC2)ccc1Nc1ncc2cc(-c3c(Cl)c(OC)cc(OC)c3Cl)c3nccn3c2n1 [compound 53]	< 50	< 50	–
C=CC(=O)Nc1cc(OCCOC)ccc1Nc1ncc2cc(-c3c(Cl)c(OC)cc(OC)c3Cl)c3nccn3c2n1 [compound 29]	< 50	< 50	< 50

SMILES	IC50 (FGFR4) [nM]	IC50 (HUH7 cells) [nM]	IC50 (FGFR1) [nM]
C=CC(=O)Nc1cccc(F)c1Nc1ncc2cc(-c3c(Cl)c(OC)cc(OC)c3Cl)c3nccn3c2n1 [compound 10]	< 50	< 50	50 to 500
C=CC(=O)Nc1cccc(F)c1Nc1ncc2cc(-c3c(F)c(OC)cc(OC)c3F)c3nccn3c2n1 [Synthesis Example 72, N-(2-((6-(2,6-difluoro-3,5-dimethoxyphenyl)imidazo[1′,2′:1,6]pyrido[2,3-d]pyrimidin-2-yl)amino)-3-fluorophenyl)acrylamide]	< 50	< 50	> 500
C=CC(=O)Nc1cc(N2CCOCC2)ccc1Nc1cc2c(cn1)cc(-c1c(Cl)c(OC)cc(OC)c1Cl)c1nccn12 [Synthesis Example 83, N-(2-((4-(2,6-dichloro-3,5-dimethoxyphenyl)imidazo[1,2-a][1,6]naphthyridin-8-yl)amino)-5-morpholinophenyl)acrylamide]	< 50	< 50	< 50
C=CC(=O)Nc1cc(OCC)ccc1Nc1ncc2cc(-c3c(Cl)c(OC)cc(OC)c3Cl)c3nccn3c2n1 [compound 27]	–	< 50	–
C=CC(=O)Nc1cc(N2CCOCC2)cc(F)c1Nc1ncc2cc(-c3c(Cl)c(OC)cc(OC)c3Cl)c3nccn3c2n1 [compound 67]	–	50 to 500	–
C=CC(=O)Nc1cc(N2CCOCC2)c(C)cc1Nc1ncc2cc(-c3c(Cl)c(OC)cc(OC)c3Cl)c3nccn3c2n1 [compound 61]	< 50	< 50	< 50
C=CC(=O)Nc1cc(N2CCC[C@H]2COC)ccc1Nc1ncc2cc(-c3c(Cl)c(OC)cc(OC)c3Cl)c3nccn3c2n1 [compound 50]	–	< 50	–
C=CC(=O)Nc1cc(C2CC2)ccc1Nc1ncc2cc(-c3c(Cl)c(OC)cc(OC)c3Cl)c3nccn3c2n1 [compound 21]	–	50 to 500	–
C=CC(=O)Nc1cc(N2C[C@@H](C)O[C@@H](C)C2)ccc1Nc1ncc2cc(-c3c(Cl)c(OC)cc(OC)c3Cl)c3nccn3c2n1 [compound 38]	< 50	< 50	< 50
C=CC(=O)Nc1cc(N2CCOCC2)ccc1Nc1ncc2cc(-c3c(Cl)c(OC)cc(OC)c3Cl)c3nccn3c2n1 [compound 32]	< 50	< 50	–
C=CC(=O)Nc1cn(C)nc1Nc1ncc2cc(-c3c(Cl)c(OC)cc(OC)c3Cl)c3nccn3c2n1 [compound 71]	–	50 to 500	–
C=CC(=O)Nc1cccc(C)c1Nc1ncc2cc(-c3c(Cl)c(OC)cc(OC)c3Cl)c3nccn3c2n1 [compound 9]	< 50	50 to 500	> 500
C=CC(=O)Nc1cc(C)ccc1Nc1ncc2cc(-c3c(Cl)c(OC)cc(OC)c3Cl)c3nccn3c2n1 [compound 19]	–	< 50	–
C=CC(=O)Nc1cc(C#N)ccc1Nc1ncc2cc(-c3c(Cl)c(OC)cc(OC)c3Cl)c3nccn3c2n1 [compound 17]	–	50 to 500	–
C=CC(=O)Nc1cc(N2CCOCC2)cc(Cl)c1Nc1ncc2cc(-c3c(Cl)c(OC)cc(OC)c3Cl)c3nccn3c2n1 [compound 68]	–	> 500	–
